As a reminder, the half-life is the time in which the quantity being followed falls by half. Read a low half-life as fast loss. The microsomal CLint is a measure of how fast metabolising enzymes remove a compound, apart from limits set by blood flow. Higher therefore signals faster metabolism. In general, IC50 refers to the concentration needed to halve the response being measured. Broadly, the solubility is how much of the substance goes into solution per volume.

From article PMC12302228 (RSC Medicinal Chemistry, 2025) come the findings set out here.

A short description of data set [1]: Metabolic stability in liver microsomes. The format is in vitro ADME. To be noted: rat, pH 7.4. (Microsomes from liver hold many membrane-bound enzymes, among them those of drug oxidation.)
Data set [2] is described as follows: Metabolic stability in liver microsomes. To be noted: human, pH 7.4. The format is in vitro ADME.
For a further data set, the system named is THP-1 cells. The experiment in a line: Differentiation of AML cells, CD11b/CD14 flow cytometry. It counts as cell-based, human. To be noted: 120 h.
Another data set concerns THP-1. Put plainly: Antiproliferative activity, MTT assay. It counts as cell-based, human. To be noted: read-out: IC50 THP-1; 48 h of treatment; mean ± SEM.
The subject of the next data set is HT-29. The experiment in a line: Antiproliferative activity, SRB assay. The format is cell-based, human. The note with it: Homo sapiens, HT-29, 48 h, read-out: IC50 HT-29, 48 h of treatment; mean ± SEM. In general terms: The SRB assay estimates cell density from bound dye.
A further data set concerns MOLM-13 cells. Put plainly: Differentiation of AML cells, CD11b/CD14 flow cytometry. The format is cell-based, human. The note with it: 120 h at 2-fold IC50.
Another data set has as its target human DHODH (Homo sapiens, UniProt Q02127). Put plainly: Human DHODH colorimetric. It counts as biochemical.
The next data set concerns histone H2AX. The experiment in a line: H2AX phosphorylation, immunofluorescence in M21 cells. The format is cell-based, human. To be noted: 24 h at 2-fold IC50.
Another data set concerns MCF7. The experiment in a line: Antiproliferative activity, SRB assay. To be noted: Homo sapiens, MCF7, 48 h, read-out: IC50 MCF7, 48 h of treatment; mean ± SEM. It counts as cell-based, human.
The subject of the next data set is M21. Put plainly: Antiproliferative activity, SRB assay. To be noted: Homo sapiens, M21, 48 h, read-out: IC50 M21, 48 h of treatment; mean ± SEM. The format is cell-based, human.
The next data set concerns HL-60. Put plainly: Antiproliferative activity, MTT assay. To be noted: Homo sapiens, HL-60, 48 h, read-out: IC50 HL-60, 48 h of treatment; mean ± SEM. The format is cell-based, human. For orientation: Tetrazolium dyes change colour on reduction, which living cells bring about.
A short description of data set [3]: Metabolic stability in liver microsomes. The format is in vitro ADME, mouse.
The nature of a further data set: physchem. The note with it: ultrapure water, 37 °C, kinetic from dmso stock.
Setting [4] is: mouse, liver microsomes, pH 7.4.

Sequence of human DHODH (Q02127 whole entry): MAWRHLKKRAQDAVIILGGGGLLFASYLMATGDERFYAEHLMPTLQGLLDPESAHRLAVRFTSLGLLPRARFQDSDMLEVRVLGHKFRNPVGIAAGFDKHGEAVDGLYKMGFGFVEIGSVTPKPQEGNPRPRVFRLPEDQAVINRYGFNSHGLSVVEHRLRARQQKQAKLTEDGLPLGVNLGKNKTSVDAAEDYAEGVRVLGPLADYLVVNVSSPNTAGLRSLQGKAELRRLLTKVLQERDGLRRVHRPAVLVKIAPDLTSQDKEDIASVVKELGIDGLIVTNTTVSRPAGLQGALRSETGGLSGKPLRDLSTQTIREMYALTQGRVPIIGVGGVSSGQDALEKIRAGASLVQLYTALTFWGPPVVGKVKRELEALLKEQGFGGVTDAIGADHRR

Turning to `CCNC(=O)Nc1ccc(S(=O)(=O)Oc2cccnc2C(C)C)cc1.Cl` [Compound 21, 2-Isopropylpyridin-3-yl 4-(3-ethylureido)benzenesulfonate hydrochloride], the values for the half-life at 4 µM in data set [1], in data set [2] and in [3] (setting [4]) were 2.5 ± 0.5 h, 1.48 ± 0.0333 h and 0.95 ± 0.0667 h, respectively. In addition, the microsomal CLint at 4 µM is 11 ± 2 µL/min/mg in [1], 15.7 ± 0.3 µL/min/mg in [2] and 25 ± 2 µL/min/mg in data set [3] (setting [4]). Further, the “CD11b and CD14 positivity, share of the cell population” value with THP-1 cells was 57%. The IC50 in the data set with THP-1 amounted to 6 ± 2 µM; in the data set with HT-29, 8 ± 0.3 µM; on human DHODH, 0.012 µM; in the data set on MCF7 it was 24 ± 3 µM; with M21 it was 11 ± 1 µM; in the data set with HL-60 it was 50 ± 10 µM. The “CD11b expression, share of the cell population” value in the data set with MOLM-13 cells amounted to 26%. Further, in the data set on histone H2AX, the “Phosphorylation of H2AX into γH2AX (γH2AX foci)” value is on record as “promote the phosphorylation of H2AX into γH2AX”. In data set [3] (ranked by CLint), the “Clearance category MLM” value was “medium (medium clearance category for MLM (13.1 < CLint < 71.1))”. The compound further gave a solubility at 24 h in “physchem” of 188 ± 1 µg/mL.
